Assay results as given in patent EP1078629A2 (GLAXO GROUP LIMITED, priority 1989, dated 1991).

Legend:
[1] = system: LPS-induced neutrophil accumulation; experiment: LPS-induced neutrophil accumulation in bronchoalveolar lavage fluid; format: in vivo, guinea-pigs; conditions: 0.1 mg.ml^-1 aerosol 30 min prior to LPS 100µg.ml^-1; 4 hours after challenge (LPS alone 141.3 ± 33.3, baseline 3.8 ± 1.2)
Method: (§3) Briefly, guinea-pigs (male Dunkin Hartley, 300-400g) were exposed to an aerosol of 100µg.ml^-1 E. coli lipopolysaccharide (LPS;026:B6, Sigma Ltd) or 100µg.ml^-1 platelet activating factor (PAF; Sigma Ltd.) for 10 min. […] The total leukocyte count of the bronchoalveolar lavage fluid (BALF) recovered was determined. A cytospin preparation was prepared from the BALF, fixed with methanol, stained with Wright's stain and a differential leukocyte count was carried out.

[2] = system: PAF-induced eosinophil infiltration; experiment: PAF-induced eosinophil infiltration in bronchoalveolar lavage fluid; format: in vivo, guinea-pigs; conditions: inhalation 0.1mg.ml^-1 30 min prior to PAF 100µg.ml^-1; 24 hours after challenge (PAF alone 97.7 ± 18.8, baseline 53.3 ± 12.5)
Method: as §3

histamine-induced PPE = experiment: Histamine-induced plasma protein extravasation in the lung; format: in vivo, guinea-pigs
Source text: Briefly, guinea-pigs (male Dunkin Hartley, 300-400g) were given an intracardiac injection of iodinated human serum albumin (0.5µCi) in heparinised saline (10U.ml^-1).

[3] = system: Zymosan-induced Granylocyte-dependent PPE; experiment: Zymosan-induced granulocyte-dependent plasma protein extravasation in skin; format: in vivo, guinea-pig; parameters: Zymosan-induced Granylocyte-dependent PPE: unit not given here
Method: (§1) The effect of β2-adrenoreceptor agonists on granulocyte-dependent and independent vascular permeability induced in guinea-pig skin, by intradermal challenge with zymosan and histamine respectively, was evaluated using a modification of the method of Issekutz Lab. Invest .,45 , 435-441(1981).
(§2) Plasma protein extravasation (PPE) was calculated as µl plasma equivalents.

[4] = system: Histamine-induced Granulocyte Independent PPE; experiment: Histamine-induced granulocyte-independent plasma protein extravasation in skin; format: in vivo, guinea-pig
Method: as §1, §2

[5] = system: zymosan-induced PMN cell accumulation in guinea-pig skin; experiment: Zymosan-induced PMN cell accumulation in skin; conditions: for % Inhibition of PMN cell accumulation: together with zymosan 0.2mg.site^-1
[6] = Cavia porcellus, PMN, po, read-out: % Inhibition of PMN cell accumulation

| Compound | BALF neutrophil count [1] | BALF eosinophil count [2] | inhibition of histamine-induced PPE at the highest doses (histamine-induced PPE; aerosol, nebuliser concentration 0.001-1mg.ml^-1) | Zymosan-induced Granylocyte-dependent PPE ([3]; Intradermal 10^-8 (nmol.site^-1), co-administered with zymosan) | Zymosan-induced Granylocyte-dependent PPE ([3]; Intradermal 10^-9 (nmol.site^-1), co-administered with zymosan) | Zymosan-induced Granylocyte-dependent PPE ([3]; Oral 1.0 mg.kg^-1, 1 hour before zymosan 0.2mg.site^-1) | Zymosan-induced Granylocyte-dependent PPE ([3]; Oral 10.0 mg.kg^-1, 1 hour before zymosan 0.2mg.site^-1) | Histamine-induced Granulocyte Independent PPE ([4]; Oral 1.0 mg.kg^-1, 1 hour before histamine 100ng.site^-1) | Histamine-induced Granulocyte Independent PPE ([4]; Oral 10.0 mg.kg^-1, 1 hour before histamine 100ng.site^-1) | inhibition at 1 mg/kg [5, 6] | inhibition at 10 mg/kg [5, 6] | % Inhibition of PMN cell accumulation ([5]; Intradermal 10^-8 (nmol.site^-1)) | % Inhibition of PMN cell accumulation ([5]; Intradermal 10^-9 (nmol.site^-1)) | ED50 (histamine-induced PPE; Cavia porcellus, po, 0.5 h, p.o., 30 min prior to histamine, read-out: ED50, inhibition of histamine-induced PPE) | time after which there is substantial loss of activity against histamine induced PPE (histamine-induced PPE; equi-effective doses) | inhibitory effect on zymosan-induced PPE ([3]; 10-100mg.kg^-1 p.o.) | dose required for a comparable effect on granulocyte-independent PPE, relative to salmeterol ([4]; compared with salmeterol 10mg.kg^-1 p.o.) | inhibitory effect on PMN cell accumulation ([5]; 10-100mg.kg^-1 p.o.) |
| --- | --- | --- | --- | --- | --- | --- | --- | --- | --- | --- | --- | --- | --- | --- | --- | --- | --- | --- |
| OCc1cc(C(O)CNCCCCCCOCCCCc2ccccc2)ccc1O (stereo not drawn) [salmeterol, 4-hydroxy-α^1-[[[6-(4-phenylbutoxy)hexyl]amino]methyl]-1,3-benzenedimethanol] | 46.8 ± 9.1 x10^3 cells.ml^-1 | 59.2 ± 19.8 x10^3 cells.ml^-1 | complete inhibition | 51.7 | 1.8 | 47.0 | 56.0 | 9.2 | 58.5 | 27% | 59% | 51% | 16% |  |  |  |  |  |
| CC(C)(C)NCC(O)c1ccc(O)c(CO)c1 (stereo not drawn) [salbutamol, reference compound] |  |  |  |  |  |  |  |  |  |  |  |  |  | 0.02 mg/kg | 2 h | no inhibitory effect | Approximately 10 fold | no significant inhibitory effect |
